The values below come from patent publication US12649748B2, “Wee1 inhibitor and use thereof” (JIANGSU TASLY DIYI PHARMACEUTICAL CO., LTD., priority 2021, dated 2026).

Bounds are passed on as bounds.

Common to all, as to format: in vitro ADME
Data set [1] is described as follows: Metabolic stability of liver microsomes in vitro (human). The note with it: read-out: Human T1/2/min. As for the experimental part:
Microsomes were taken out from the −80° C. refrigerator, rapidly melted in a 37° C. water bath and placed on ice until ready to use. The test article was diluted with DMSO to prepare a 10 mM stock solution, and then diluted with acetonitrile to a 0.5 mM secondary stock solution. The microsomes were diluted to 0.75 mg/ml using Buffer C; the secondary stock solution was then added to a final concentration of 1.5 μM of compound as working solution, based on n=2, 5 time points, 350 μL of each compound was prepared and placed on ice prior to use. NADPH was diluted with Buffer C to a working solution of 6 mM for the starter solution. An acetonitrile solution containing an internal standard was prepared as the precipitant, and Verapamil-HCl was chosen as the internal standard at a concentration of 4 ng/ml.
A round-bottom well plate was taken, noted as the reaction plate, and the prepared working solution for each compound was dispensed into the well plate according to the number of replicates and time points (0 h samples are also added to the reaction plate), 30 μL/well; the plate was incubated at 37° C. for 10 min. A separate plate with pointed bottom wells, noted as a precipitation plate, was added with 135 μL precipitant per well; 0 h samples were transferred to the plate after 10 min incubation and 15 μL of starter solution was added; the plate was placed on ice before centrifugation.
The diluted starter solution was added in sufficient quantity to the dispensing plate to facilitate the multichannel pipette aspiration operation.
The reaction was carried out on a warm incubation shaker and 15 μL of starter solution/sample is added to the plate using a multichannel pipette. The reaction was mixed with a slight shake to initiate the reaction, which was accurately timed and recorded using a timer;
After the reaction time had elapsed, all the solution in the plate was aspirated using the multichannel pipette and added to the precipitation plate to terminate the reaction at that point in time. After all reactions had been terminated, the plates were shaken for ten minutes on a plate shaker at 600 rpm to precipitate the protein. The plate was centrifuged at 4° C. for 15 minutes at maximum rpm. 80 μL of supernatant was taken, 320 μL of pure water was added and mixed for LC-MS analysis.
Background: Microsomes from liver hold many membrane-bound enzymes, among them those of drug oxidation.

The nature of data set [2]: Plasma protein binding (PPB), mouse. The settings on record: 5 h dialysis, read-out: Plasma protein binding rate (%) Mouse (converted). As for the experimental part:
Sample preparation: The compound was dissolved in DMSO to a stock solution of 10 mM, then the compound was diluted with PBS to a secondary stock solution of 0.02 mM, and then the above 0.02 mM was diluted to 1 μM using blank plasma, which was the sample to be incubated.
Dialysis set-up preparation: 400 μL of blank PBS was first added to the white wells of the equilibrated dialysis plate and 200 μL of the configured plasma sample was added to the red wells, and the dialysis plate was sealed with a sealing film.
Recovery plate preparation: Two 96-well deep-well plates, labelled T0 and T5, were prepared and all plasma samples were added at n=2. 300 μL of acetonitrile (Verapamil-HCl, 4 ng/mL) was added directly to the TO plate, followed by 50 μL of blank PBS mix well for 5 min and left to stand in a 4° C. refrigerator until the end of the incubation.
Experimental Operation: The dialysis device and the T5 plate were incubated together for 5 h in a microplate thermostatic shaker (37° C., using 300 rpm or minimum speed). At the end of the incubation, 300 μL of acetonitrile (Verapamil-HCl, 4 ng/mL) was added and 50 μL of PBS solution was added. At the end of the dialysis incubation, a new 96-well deep well plate was taken. Add 50 μL of plasma well sample to the corresponding position of the 96-well plate, 300 μL of acetonitrile and 50 μL of blank PBS; take 50 μL of buffer well sample to the corresponding position of the 96-well plate, then add 300 μL of acetonitrile and 50 μL of blank plasma. Add 300 μL of acetonitrile (Verapamil-HCl, 4 ng/mL) to the plasma-containing wells of the T5 plate, and then 50 μL of PBS solution was added. Shake for 5 min to fully precipitate the proteins and centrifuge at 20,000 g for 10 min at 4° C. Add 200 μL of supernatant to 200 μL of pure water, mix well and perform LC-MS/MS analysis.
2. Data Processing and Parameter Calculation Plasma protein binding rate=[(Rpe−Rb)/Rpe]×100% Recovery=[(Rpe+Rb)/R5h]×100% Stability=(R5/R0)×100% where • Rpe=ratio of plasma-side testing sample peak area to internal standard • Rb=ratio of buffer side testing sample peak area to internal standard • R5=ratio of incubator stability sample peak area to internal standard • R0=ratio of refrigerator stability sample peak area to internal standard 3.

The nature of data set [3]: Membrane permeability study (Caco-2). The note with it: human; for efflux ratio at 90 min, 10 µM: Caco-2, pH 7.4, read-out: Efflux Ration; for Papp A→B at 90 min, 10 µM / Papp B→A at 90 min, 10 µM: pH 7.4, Caco-2, 10 μM; for Papp A→B at 90 min, 10 µM: A to B; for Papp B→A at 90 min, 10 µM: B to A. As for the experimental part: Caco-2 cells were purchased from the […] (Rockville, MD). The cell culture medium was modified Eagle's medium (MEM) containing 10% inactivated fetal bovine serum and 1% non-essential amino acids. Cells were inoculated on polycarbonate filter membranes (Cat no. 3396) and incubated at 37° C. in a 5% CO2 incubator.
The cells were incubated for 21-28 days after inoculation for transport experiments and the apparent permeability (Papp) of Lucifer Yellow was used to characterize and verify the compactness of the cell monolayer. A stock solution of 10 mM was prepared by dissolving the compound in DMSO and diluted using Hanks Balanced Salt Solution (HBSS, Invitrogen, Cat #14025-092) containing 25 mM HEPES (pH 7.4) to obtain the working solution. A 10 μM working solution of the compound to be tested was added to the apical side and basolateral side of Caco-2 and incubated at 37° C. for 90 min. After the incubation, dilute the samples on the apical side and basolateral side, and the concentrations of compounds on the apical and basolateral sides were detected by LC-MS/MS, and the concentrations of the compounds were quantified by standard curve.
Background: Caco-2 monolayers are a common model of the intestinal barrier.

The next data set addresses CYP2C9 (Homo sapiens, UniProt P11712). Briefly: Inhibition of cytochrome P450, CYP2C9. The settings on record: CYP2C9 enzyme, pH 7.4, probe BOMCC, read-out: CYP inhibition/% 2C9; for inhibition at 30 min, 1 µM: compound concentration 1 μM; for inhibition at 30 min, 10 µM: compound concentration 10 μM. Here is the method: (§1) Enzymatic experiments were performed to quantify the inhibition of CYP450 enzyme activity of each isoform of CYP450 by small molecule inhibitors through fluorescence generated by the oxidation of the substrate by cytochrome P450. […] The Solution B composition used for the experiment was: 40 U/mL G6PDH (Sigma-aldrich, Cat #G6378). The substrate mix was 0.05× Solution A, 0.01× Solution B, 50 mM Potassium Phosphate, 0.01 mM BOMCC/0.01 mM EOMCC/0.001 mM DBOMF. […] The data were analyzed and processed using GraphPad Prism 6 software to obtain IC50 values.

For another data set, the target named is CYP3A4 (Homo sapiens, UniProt P08684). Description: Inhibition of cytochrome P450, CYP3A4. The note with it: CYP3A4 enzyme, pH 7.4, probe BOMCC, read-out: CYP inhibition/% 3A4; for inhibition at 30 min, 1 µM: compound concentration 1 μM; for inhibition at 30 min, 10 µM: compound concentration 10 μM. Here is the method:
as §1

Sequence of CYP3A4 (P08684 whole entry): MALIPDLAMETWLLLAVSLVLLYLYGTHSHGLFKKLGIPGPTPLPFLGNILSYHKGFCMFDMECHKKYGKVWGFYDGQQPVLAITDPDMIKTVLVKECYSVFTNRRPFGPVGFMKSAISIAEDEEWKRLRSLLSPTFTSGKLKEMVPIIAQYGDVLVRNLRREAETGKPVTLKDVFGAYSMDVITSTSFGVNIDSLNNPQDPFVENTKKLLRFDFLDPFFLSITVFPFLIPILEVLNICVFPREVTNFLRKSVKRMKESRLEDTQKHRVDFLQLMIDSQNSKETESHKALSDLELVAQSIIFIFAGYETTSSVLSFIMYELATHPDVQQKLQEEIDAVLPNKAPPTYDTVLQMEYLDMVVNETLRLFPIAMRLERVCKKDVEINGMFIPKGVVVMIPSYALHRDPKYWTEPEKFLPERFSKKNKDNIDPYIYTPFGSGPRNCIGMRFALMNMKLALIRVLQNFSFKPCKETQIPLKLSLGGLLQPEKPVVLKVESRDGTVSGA
Sequence of CYP2C9 (P11712 whole entry, canonical isoform): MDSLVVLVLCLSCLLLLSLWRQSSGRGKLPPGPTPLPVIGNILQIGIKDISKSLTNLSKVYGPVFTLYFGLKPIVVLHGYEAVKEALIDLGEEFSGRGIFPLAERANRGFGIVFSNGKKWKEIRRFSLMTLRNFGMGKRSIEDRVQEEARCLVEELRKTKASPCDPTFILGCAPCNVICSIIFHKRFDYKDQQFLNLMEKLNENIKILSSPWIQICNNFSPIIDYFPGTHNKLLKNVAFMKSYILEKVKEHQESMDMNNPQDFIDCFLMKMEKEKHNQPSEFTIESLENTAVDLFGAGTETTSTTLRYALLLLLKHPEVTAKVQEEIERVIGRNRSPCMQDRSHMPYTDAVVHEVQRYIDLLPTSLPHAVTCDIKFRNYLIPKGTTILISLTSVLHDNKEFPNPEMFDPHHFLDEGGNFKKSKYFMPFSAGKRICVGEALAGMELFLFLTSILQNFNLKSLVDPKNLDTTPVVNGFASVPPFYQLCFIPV

A word on the Papp A→B: it is the apparent permeability from the apical to the basolateral side of a cell layer. A low value points to poor permeation. The term Papp B→A denotes how fast a substance crosses the layer from the basolateral side. As to `Cc1cc(Nc2ncc3cnn(-c4cccc(N=S(C)(C)=O)n4)c3n2)ccc1N1CCN(C)CC1` [Compound 16], the half-life at 1 µM in data set [1] is > 120 min. Also, the fraction unbound at 5 h, 1 µM in data set [2] is 0.092. In data set [3], the efflux ratio at 90 min, 10 µM was found to be 2.51; the Papp A→B at 90 min, 10 µM came out at 8.07 ×10⁻⁶ cm/s; the Papp B→A at 90 min, 10 µM was found to be 20.3 ×10⁻⁶ cm/s.

On to `CN1CCN(c2ccc(Nc3ncc4cnn(-c5cccc(N=S(C)(C)=O)n5)c4n3)cc2)CC1` [Compound 1], for which the half-life at 1 µM in data set [1] is > 120 min. Also, the fraction unbound at 5 h, 1 µM in data set [2] was 0.226. In addition, in data set [3], the efflux ratio at 90 min, 10 µM stood at 4.67; the Papp A→B at 90 min, 10 µM was 8.93 ×10⁻⁶ cm/s; the Papp B→A at 90 min, 10 µM stood at 41.7 ×10⁻⁶ cm/s. At CYP2C9, the inhibition at 30 min, 1 µM worked out at 7.5% and the inhibition at 30 min, 10 µM was 18.6%. Also, on CYP3A4, the inhibition at 30 min, 1 µM amounted to 8.1% and the inhibition at 30 min, 10 µM worked out at 10.9%.

As for `CN1CCN(c2ccc(Nc3ncc4cnn(-c5cccc(C(C)(C)O)n5)c4n3)cc2)CC1` [Compound 2], the half-life at 1 µM in data set [1] is > 120 min. On CYP2C9, the inhibition at 30 min, 1 µM is -10.6% and the inhibition at 30 min, 10 µM is -16%. On CYP3A4, the inhibition at 30 min, 1 µM is 0% and the inhibition at 30 min, 10 µM was -10.6%.

As for `Cc1cc(Nc2ncc3cnn(-c4cccc(N=S(C)(C)=O)n4)c3n2)ccc1N1CCC(N(C)C)CC1` [Compound 14], the half-life at 1 µM in data set [1] is > 120 min. In addition, the fraction unbound at 5 h, 1 µM in data set [2] was 0.138. In addition, in data set [3], the efflux ratio at 90 min, 10 µM is 3.54; the Papp A→B at 90 min, 10 µM was 5.86 ×10⁻⁶ cm/s; the Papp B→A at 90 min, 10 µM is 20.8 ×10⁻⁶ cm/s.

In the case of `CS(C)(=O)=Nc1cccc(-n2ncc3cnc(Nc4ccc(N5CCOCC5)cc4)nc32)n1` [Compound 6], at CYP2C9, the inhibition at 30 min, 1 µM came out at 15.3% and the inhibition at 30 min, 10 µM worked out at 13.1%. Besides, on CYP3A4, the inhibition at 30 min, 1 µM is -26.1% and the inhibition at 30 min, 10 µM is -25.7%.

On to `C=CCn1c(=O)c2cnc(Nc3ccc(N4CCN(C)CC4)cc3)nc2n1-c1cccc(C(C)(C)O)n1` [AZD-1775, reference compound], for which the half-life at 1 µM in data set [1] is > 120 min. Further, the fraction unbound at 5 h, 1 µM in data set [2] is 0.087. Besides, in data set [3], the Papp A→B at 90 min, 10 µM was 14.5 ×10⁻⁶ cm/s and the Papp B→A at 90 min, 10 µM was 35.3 ×10⁻⁶ cm/s.
